Assays:
[1] = test system: Ps. fluorescens 3756; assay: Chicken soup trial at 8° C.; type: cell-based, Pseudomonas fluorescens; settings: chicken soup at 8° C.
Excerpt: (§1) A local supermarket brand of cream of chicken soup was used as a model food system. 600 g packs were purchased from the local supermarket. This was a ‘fresh home-made type’ of soup that was stored in the chill cabinet, with a short shelf life. It was chosen because it is a rich, nutritious food system containing a range of food components including meat, dairy and vegetable.
(§2) Ingredients were labelled as: chicken stock (water, duck fat, chicken, salt, flavourings, yeast extracts, pork gelatine, glucose syrup, vegetable concentrate, milk protein, sugar, malto-dextrin, vegetable oil, citric acid, lactose, chicken fat), ilk, chicken (9%), cream (8%), onion, potato, vegetable oil, modified maize starch, wheat flour, lemon juice, salt, white pepper. pH 5.912. Protein: 3.3%; carbohydrate: 4.7%; fat: 7.2%; fibre: 0.2%; sodium: 0.1%
(§3) For the test the soup was mixed 2:1 in water (to facilitate sampling and mixing) and sterilised by autoclaving at 121° C. for 15 minutes. For each experiment the pH of the soup was recorded; this was between pH 5.79-5.88.
For TCS010412/8 (which was incubated at 8° C.), APP batch number APP20010213 (concentration 169 mg APP/ml) was used to prepare tests containing 0, 2000 or 4000 ppm APP. 5 g of filter-sterilised APP stock solution was added to 94 g of soup, mixed and then 1 ml of a diluted inoculum suspension (cells or spores as appropriate) was added to give a test inoculum level of 10^3 cfu/g. The soup mixture was shaken vigorously to ensure homogeneous distribution of the APP and micro-organisms. The tests were tested by viable count and then incubated at 8° C. and tested on a twice-weekly basis.
For TCS010521/8 (incubated at 8° C.), samples were prepared in 27.8 g quantities. 1.5 g of an APP stock solution was added, and the tests inoculated with 0.3 ml of a suitably diluted cell or spore suspension to give a final inoculum of ca. 10^3 cfu/g. APP was tested at 0, 500 and 1000 ppm, and batch number APP20010213 (at 169 mg/ml) was used. The tests were sampled by viable count and then incubated at 8° C. and tested on a twice-weekly basis.

[2] = test system: B. cereus 204; assay: Test in cooked minced chicken slurry; type: cell-based, Bacillus cereus; settings: 2000 ppm; minced chicken slurry at 8° C., pH 6.42, TCC010704
Description: 1 kg of minced chicken (mainly lean meat) was purchased from the local butcher. This was mixed with 1 litre of BHI, mixed and dispensed as 100 g samples prior to autoclaving. When still warm, the meat was re-mixed thoroughly. When cooked, the meat was inoculated with 1 ml of 10^5 spores or cells (from an overnight broth), and re-mixed. The samples were then divided into 3×25 g portions, to which 0.5 ml of filter-sterilised APP20010215 was added (as 5% or 10% stock solutions) or water. An initial viable count was taken, and the samples then incubated at 8° C. and tested twice weekly. The pH of the chicken slurry was 6.42.

[3] = test system: TAVC; assay: Uninoculated test in raw meat; type: cell-based; settings: 2000 ppm APP; for Viable counts: raw meat at 8° C.
Description: […] of raw minced beef was purchased from the local butcher. 10 g of either a 2% (20,000 ppm) stock solution of APP2001213 or water was added, and the meat mixed thoroughly. Initial counts were carried out, and then the meat was incubated at 8° C. and sampled for 3 consecutive days. The pH of the raw meat was 5.3.

[4] = test system: Ps. fluorescens; assay: Chicken soup at 8° C. (summary); type: cell-based, Pseudomonas fluorescens; settings: Chicken soup at 8° C. pH 5.8
Excerpt: as §1, §2, §3
For TCS010412/8 (which was incubated at 8° C.), APP batch number APP20010213 (concentration 169 mg APP/ml) was used to prepare tests containing 0, 2000 or 4000 ppm APP. […]
For TCS010521/8 (incubated at 8° C.), samples were prepared in 27.8 g quantities. […]

O=C1CC(CO)OC=C1O (stereo not shown) [APP, Ascopyrone P]
Effect on growth ([1]; 500 ppm, TCSM010521, APP215): Little effect with 500 ppm
Counts undetectable ([1]; 1000 ppm, TCSM010521, APP215): At 1000 ppm counts undetectable >3 d
Total inhibition for ([1]; 1000 ppm, TCSM010521, APP215): Total inhibition by 1000 ppm for >27 days.
Total inhibition for ([1]; 2000 ppm, TCS010412, APP20010213): Total inhibition by 2000 and 4000 ppm for >60 days.
Total inhibition for ([1]; 4000 ppm, TCS010412, APP20010213): Total inhibition by 2000 and 4000 ppm for >60 days.
Counts undetectable from day ([1]; APP samples (2000, 4000 ppm), TCS010412, APP20010213): Counts undetectable from day 1 in APP samples
Effect on growth [2]: Partial inhibition by 2000 ppm
Viable counts ([3]; day 0, TRM010521): 9.3 × 10^6 cfu/g
Viable counts ([3]; day 1, TRM010521): 2.2 × 10^8 cfu/g
Viable counts ([3]; day 2, TRM010521): 1.5 × 10^8 cfu/g
Viable counts ([3]; day 3, TRM010521): 5.0 × 10^8 cfu/g
Counts in control and APP samples ([3]; uninoculated raw meat at 8° C., pH 5.3): identical
Total inhibition (effect on growth of target organism by 2000 ppm APP) [4]: Ps. fluorescens
